# Source: the RepoRT retention time repository (doi:10.1007/s11306-014-0638-x)
# Experiment: RP, Waters ACQUITY UPLC HSS T3, 150 × 2.1 mm, 1.8 µm, 40 °C, 0.28 mL/min, estimated dead time 1.2 min; A: water + 0.1% formic acid, pH 3; B: methanol + 0.1% formic acid, pH 3; gradient (min/%B) 0/0 1/0 3/10 18/40 21/100 25.5/100 25.6/0 28/0
# Conditions: stereoisomer not certain
row,SMILES,LC retention time [min]
1,"O=C(O)c1ccc(O)c(O)c1 [3,4-dihydroxybenzoic acid]",7.77
2,"O=C(O)c1cc(O)cc(O)c1 [3,5-dihydroxybenzoic acid]",7.75
3,O=C(O)c1ccc(O)cc1 [4-hydroxybenzoic acid],10.6
4,NC(CCC(=O)NC(CS)C(=O)NCC(=O)O)C(=O)O [L-glutathione],1.7
5,CC[C@H](C)[C@H](N)C(=O)O [L-isoleucine],4.44
6,O=C(O)[C@@H]1CCCN1 [L-proline],1.51
7,O=C(O)[C@H](O)[C@@H](O)C(=O)O [L-tartaric acid],1.46
8,N[C@@H](Cc1ccc(O)cc1)C(=O)O [L-tyrosine],4.28
9,OCC1OC(Oc2cc(O)cc(C=Cc3ccc(O)c(O)c3)c2)C(O)C(O)C1O (stereo not given) [astringin],14.2
10,O=C1CC(c2ccc(O)c(O)c2)c2c(cc(O)c3c2OC(c2ccc(O)c(O)c2)C(O)C3)O1 (stereo not given) [caffeic acid+catechin condensation product],17.8
11,O=C(C=Cc1ccc(O)c(O)c1)OC(C(=O)O)C(O)C(=O)O (stereo not given) [caftaric acid],8.53
12,OCC1OC(Oc2cc(O)cc(C=Cc3ccc(O)cc3)c2)C(O)C(O)C1O (stereo not drawn) [cis-piceid],18.4
13,Oc1ccc(/C=C\c2cc(O)cc(O)c2)cc1 [cis-resveratrol],20.4
14,CC(O)(CC(=O)O)C(=O)O (stereo not given) [citramalic acid],4.02
15,O=c1oc2c(O)c(O)cc3c(=O)oc4c(O)c(O)cc1c4c23 [ellagic acid],20.3
16,Oc1ccc(C2Oc3cc(O)cc(O)c3CC2O)cc1 (stereo not given) [epiafzelechin],15.6
17,O=C(OC1Cc2c(O)cc(O)cc2OC1c1ccc(O)c(O)c1)c1cc(O)c(O)c(O)c1 (stereo not given) [epicatechin gallate],16
18,Oc1cc(O)c2c(c1)OC(c1ccc(O)c(O)c1)C(O)C2 (stereo not given) [epicatechin],12.1
19,O=C(OC1Cc2c(O)cc(O)cc2OC1c1cc(O)c(O)c(O)c1)c1cc(O)c(O)c(O)c1 (stereo not given) [epigallo-catechin gallate],12.7

row,SMILES,LC retention time [min]
1,CCOC(=O)c1cc(O)c(O)c(O)c1 [ethyl gallate],15.2
2,COc1cc(C=CC(=O)OC(C(=O)O)C(O)C(=O)O)ccc1O (stereo not given) [fertaric acid],11.8
3,COc1cc2ccc(=O)oc2c(OC2OC(CO)C(O)C(O)C2O)c1O (stereo not given) [fraxin],12.6
4,Oc1cc(O)c2c(c1)OC(c1cc(O)c(O)c(O)c1)C(O)C2 (stereo not given) [gallocatechin],8.68
5,COc1ccc(C2CC(=O)c3c(O)cc(O)cc3O2)cc1O (stereo not given) [hesperetin],21.1
6,Oc1ccc(C2Oc3cc(O)cc4c3C2c2cc(O)cc(O)c2C(c2ccc(O)cc2)C4C2c3cc(O)cc4c3C(c3cc(O)cc(O)c3C2c2ccc(O)cc2)C(c2ccc(O)cc2)O4)cc1 (stereo not given) [isohopeaphenol],10.7
7,COc1cc(-c2oc3cc(O)cc(O)c3c(=O)c2OC2OC(CO)C(O)C(O)C2O)ccc1O (stereo not given) [isorhamnetin 3-glucoside],20.5
8,COc1cc(-c2oc3cc(O)cc(O)c3c(=O)c2OC2OC(COC3OC(C)C(O)C(O)C3O)C(O)C(O)C2O)ccc1O (stereo not given) [isorhamnetin 3-rutinoside],20.6
9,COc1cc(C=Cc2cc(O)cc(OC3OC(CO)C(O)C(O)C3O)c2)ccc1O (stereo not given) [isorhapontin],17.6
10,O=c1c(OC2OC(CO)C(O)C(O)C2O)c(-c2ccc(O)cc2)oc2cc(O)cc(O)c12 (stereo not given) [kaempferol 3-glucoside],20.3
11,CC1OC(OCC2OC(Oc3c(-c4ccc(O)cc4)oc4cc(O)cc(O)c4c3=O)C(O)C(O)C2O)C(O)C(O)C1O (stereo not given) [kaempferol 3-rutinoside],20.5
12,O=c1cc(-c2ccc(O)c(O)c2)oc2cc(OC3OC(CO)C(O)C(O)C3O)cc(O)c12 (stereo not given) [luteolin 7-glucoside],19.7
13,COC(=O)c1cc(O)c(O)c(O)c1 [methyl gallate],10.7
14,COc1cc(-c2oc3cc(=O)cc4oc(C)cc(c2OC2OC(CO)C(O)C(O)C2O)c43)cc(OC)c1O (stereo not given) [methylpyrano malvidin 3-glucoside],19.7
15,O=C1CC(c2ccc(O)cc2)Oc2cc(OC3OC(CO)C(O)C(O)C3O)cc(O)c21 (stereo not given) [naringenin 7-glucoside],19.5
16,O=C1CC(c2ccc(O)cc2)Oc2cc(O)cc(O)c21 (stereo not given) [naringenin],21
17,O=C(O)C=Cc1ccccc1O [o-coumaric acid],19.7
18,COc1cc(-c2oc3cc(=O)cc4oc(O)cc(c2OC2OC(CO)C(O)C(O)C2O)c43)cc(OC)c1O (stereo not given) [oxovitisin A],20.7
19,Oc1ccc(C2c3c(O)cc(O)cc3C3C(c4ccc(O)cc4)c4c(O)cc(O)cc4C23)cc1 (stereo not given) [pallidol],17.6

# Second part, the compound after the results:
row,LC retention time [min],SMILES
1,19.4,CCOc1ccc(NC(C)=O)cc1 [phenacetin]
2,21.1,O=C(CCc1ccc(O)cc1)c1c(O)cc(O)cc1O [phloretin]
3,20.2,O=C(CCc1ccc(O)cc1)c1c(O)cc(O)cc1OC1OC(CO)C(O)C(O)C1O (stereo not given) [phloridzin]
4,9.66,Oc1cc(O)c2c(c1)OC(c1ccc(O)c(O)c1)C(O)C2c1c(O)cc(O)c2c1OC(c1ccc(O)c(O)c1)C(O)C2 (stereo not given) [procyanidin B1]
5,3.95,CCC(=O)O [proprionic acid]
6,21.9,COc1cc(C=Cc2ccc(O)cc2)cc(OC)c1 [pterostilbene]
7,17.4,"O=c1c(OC2OC(CO)C(O)C(O)C2O)c(-c2ccc(OC3OC(CO)C(O)C(O)C3O)c(O)c2)oc2cc(O)cc(O)c12 (stereo not given) [quercetin 3,4'-diglucoside]"
8,20,O=c1c(OC2OC(C(O)CO)C(O)C2O)c(-c2ccc(O)c(O)c2)oc2cc(O)cc(O)c12 (stereo not given) [quercetin 3-glucoside]
9,19.9,O=C(O)C1OC(Oc2c(-c3ccc(O)c(O)c3)oc3cc(O)cc(O)c3c2=O)C(O)C(O)C1O (stereo not given) [quercetin 3-glucuronide]
10,20,CC1OC(OCC2OC(Oc3c(-c4ccc(O)c(O)c4)oc4cc(O)cc(O)c4c3=O)C(O)C(O)C2O)C(O)C(O)C1O (stereo not given) [quercetin 3-rutinoside]
11,20.1,O=c1c(OS(=O)(=O)O)c(-c2ccc(O)c(O)c2)oc2cc(O)cc(O)c12 [quercetin 3-sulfate]
12,20.4,O=c1c(O)c(-c2ccc(OC3OC(CO)C(O)C(O)C3O)c(O)c2)oc2cc(O)cc(O)c12 (stereo not given) [quercetin 4'-glucoside]
13,1.58,O=C(O)C1(O)CC(O)C(O)C(O)C1 (stereo not given) [quinic acid]
14,3.94,O=C(O)CCC(=O)O [succinic acid]
15,13.8,COc1cc(C(=O)O)cc(OC)c1O [syringic acid]
16,16.8,O=C1c2c(O)cc(O)cc2OC(c2ccc(O)c(O)c2)C1O (stereo not given) [taxifolin]
17,10.7,O=C(C=Cc1ccc(O)cc1)OC(C(=O)O)C(O)C(=O)O (stereo not drawn) [trans coutaric acid]
18,2.34,O=c1cc[nH]c(=O)[nH]1 [uracil]
19,3.44,O=c1[nH]c(=O)c2[nH]c(=O)[nH]c2[nH]1 [uric acid]
20,19.3,COc1cc(-c2oc3cc(=O)cc4oc(O)c(C=[OH+])c(c2OC2OC(CO)C(O)C(O)C2O)c43)cc(OC)c1O (stereo not given) [vitisin A]
21,18.3,Oc1ccc(C2Oc3ccc(C=Cc4cc(O)cc5c4C(c4cc(O)cc(O)c4)C(c4ccc(O)cc4)O5)cc3C2c2cc(O)cc3c2C(c2cc(O)cc(O)c2)C(c2ccc(O)cc2)O3)cc1 (stereo not given) [vitisin B]
22,3.97,O=c1[nH]c(=O)c2[nH]cnc2[nH]1 [xanthine]
